Data taken from publication PMC11839646, “HPK1 kinase inhibitor: a sufficient approach to target HPK1 to modulate T cell activation in cancer immunotherapy compared with degraders” (Frontiers in Immunology, 2025).
Where two headings read alike, the source gives them in different places.

What was measured:
[1] = test system: Jurkat cells; experiment: IL-2 production by Jurkat cells stimulated with immobilized OKT3; type: cell-based, human; conditions: Jurkat cells pretreated 24 h, immobilized OKT3 24 h
Method: (§1) Jurkat cells (ATCC, Manassas, VA, USA) and human peripheral blood mononuclear cells (PBMCs) were cultured in RPMI-1640 medium (Thermo Fisher Scientific, Waltham, MA, USA) supplemented with 10% heat-inactivated fetal bovine serum (Thermo Fisher) and 1% penicillin–streptomycin (Thermo Fisher Scientific) at 37°C in a humidified incubator with 5% CO2. The density of Jurkat cells was adjusted to 1 × 10^6/mL 24 h before conducting the experiment. Cryopreserved human PBMCs were purchased from Oribiotech (Shanghai, China); they were freshly thawed and cultured overnight prior to performing the experiment.
Jurkat cells were seeded in triplicates into those plates for stimulation and incubated for 24 h. Alternatively, Jurkat cells were pretreated with various concentrations of the aforementioned compounds for 24 h prior to stimulation with aforementioned immobilized OKT3. For cytokine analysis of human PBMCs, the cells were seeded into U-bottomed 96-well plates (Corning Inc.) and treated with the compounds for 24 h prior to stimulation. Next, the cells were stimulated by co-culture with HEK293/OS8/PD-L1 cells in the U-bottomed 96-well plates for another 24 h. HEK293/OS8/PD-L1 is a HEK293 cell line edited to stably co-express human PD-L1 (programmed death ligand 1) and single chain fragment variable (scFv) of OKT3 fused with transmembrane and cytoplasmic domains of murine CD8α, as previously described ([21]). Interleukin 2 (IL-2) and interferon-gamma (IFN-γ) in the supernatant were detected using the HTRF Human IL-2 Detection Kit and AlphaLISA Biotin-Free Human IFNγ Detection Kit (both obtained from Revvity, Waltham, MA, USA) according to the instructions provided by the manufacturer. Data were acquired with PHERAstar FSX (BMG LABTECH Inc., Cary, NC, USA).

[2] = molecular target: T1, HPK1 (Homo sapiens, UniProt Q92918); experiment: HPK1 degradation in CD4+ and CD8+ T cells of human PBMCs (flow cytometry); type: cell-based; design: Compound 2 degraded HPK1 in CD4^+ and CD8^+ T cells in a concentration-dependent manner; host or cells: human PBMCs (CD4+ and CD8+ T cells) from healthy donors; conditions: for HPK1 degradation at 1,000 nM / HPK1 degradation at high concentrations: CD4+ and CD8+ T cells in human PBMCs; for HPK1 degradation at 1,000 nM: 24 h, 1,000 nM; for HPK1 degradation at high concentrations: 24 h, ≥3,000 nM; for DC50: 24 h treatment, read-out: HPK1 degradation EC50
Method: as §1
(§2) Jurkat cells or human PBMCs were pretreated in triplicates or quadruplicates with dimethyl sulfoxide or compounds for 24 h. For p-SLP76-S376 analysis, the cells were activated for 30 min with OKT3. For granzyme B and perforin analysis of human PBMCs, ultra-high binding 96-well plates (Corning Inc., Corning, NY, USA) were precoated with OKT3 overnight at 4°C. Human PBMCs were pretreated in quadruplicates with dimethyl sulfoxide or compounds for 24 h. The cells were then activated for another 24 h with precoated OKT3, followed by 2 h treatment with Protein Transport Inhibitor Cocktail (Thermo Fisher). The stimulated cells were fixed with BD Phosflow™ Lyse/Fix buffer (BD Biosciences, San Diego, CA, USA), washed and permeabilized with BD Perm Buffer III (BD Biosciences), and subsequently stained with a fluorescence-conjugated antibody against HPK1 (E1C3L; Cell Signaling Technology), p-SLP76-S376 (E3G9U; Cell Signaling Technology), granzyme B (GB11, BioLegend, San Diego, CA, USA), perforin (dG9, BioLegend) and anti-human CD3 (SK7, BioLegend), CD4 (SK3, BioLegend) and CD8 (SK1, BioLegend) for primary T cells. This was followed by data acquisition and analysis with the BD FACSymphony™ A1 Cell Analyzer (BD Biosciences).

[3] = test system: phosphorylation of SLP76-S376; experiment: TCR-induced p-SLP76-S376 in CD4+ and CD8+ T cells of human PBMCs (flow cytometry); type: cell-based; conditions: for TCR-induced phosphorylation on SLP76-S376: 24 h pretreatment
Method: as §1, §2

[4] = test system: CD8+ T cells of human PBMCs; experiment: Granzyme B levels in CD8+ T cells of human PBMCs after OKT3 stimulation; type: cell-based; conditions: human PBMCs pretreated 24 h, OKT3 stimulation 24 h
Method: as §2

[5] = molecular target: T1, HPK1; experiment: HPK1 degradation in Jurkat cells (intracellular staining, flow cytometry); type: cell-based; design: Compound 2 degraded HPK1 in CD4^+ and CD8^+ T cells in a concentration-dependent manner; host or cells: human PBMCs (CD4+ and CD8+ T cells) from healthy donors; conditions: for HPK1 degradation at high concentrations: 24 h treatment, ≥1,000 nM
Method: as §1, §2

[6] = molecular target: T1, HPK1; experiment: Western blotting of TCR-induced signaling in HKO-EV, HKO-HPK1.WT and HKO-HPK1.K46E Jurkat cells; type: cell-based; design: expressed in transfected cells; host or cells: HPK1-knockout Jurkat single clone (EdiGene), lentiviral transduction, blasticidin-selected pool; conditions: compound pretreatment, OKT3 stimulation; for SLP76-S376 phosphorylation (Western blot): HKO-HPK1.WT Jurkat cells; for ERK1/2 phosphorylation (Western blot): HKO-HPK1.WT vs HKO-EV and HKO-HPK1.K46E Jurkat cells
Excerpt: The Jurkat line with a homozygous knockout of HPK1 (HKO) single clone was purchased from EdiGene (Beijing, China). HKO-EV (HKO empty vector control), HKO-HPK1.WT (HKO overexpressing wildtype HPK1), and HKO-HPK1.K46E (HKO overexpressing kinase-dead HPK1) Jurkat pools were generated by lenti-vector transduction. In brief, the coding sequences of different HPK1 mutants were inserted into a FG12-BSD plasmid with the human phosphoglycerate kinase (hPGK) promoter (GenScript, Nanjing, China). Thereafter, 293T cells (ATCC) were transfected with those plasmids together with lentivirus packing plasmids pMD2.G and psPAX2. The culture medium containing virus was collected and used to infect HKO cells. Blasticidin 10 µg/mL (InvivoGen, San Diego, CA, USA) was used for the selection of infected cells. HPK1-knockin Jurkat cells (HPK1 K46*) and kinase-inactivated HPK1-knockin Jurkat cells (HPK1 K46E) were produced by introducing a Lys46Ter mutation or a Lys46Glu mutation to the HPK1 gene, respectively.
(§3) Jurkat cells were activated by anti-human CD3 (OKT3; 10 μg/mL, Thermo Fisher Scientific), while human peripheral blood cells were activated through TCR crosslinking by biotinylated OKT3 and streptavidin (7.5 μg/mL; Thermo Fisher Scientific). The cells were lysed at various time points post stimulation, and the lysate was denatured. The obtained samples were subjected to electrophoresis, and the separated proteins were electro-transferred onto a nitrocellulose membrane. Thereafter, the membranes were incubated with antibodies against HPK1 (E1C3L), phosphorylated SLP76-S376 (p-SLP76-S376; D7S1K), SLP76 (D1R1A), p-ERK1/2-T202/Y204 (D13.14.4E), p-PLCγ1-Y783 (polyclonal), PLCγ1 (D9H10), and glyceraldehyde-3-phosphate dehydrogenase (GAPDH; D4C6R). All antibodies used for immunoblotting were purchased from Cell Signaling Technology (Danvers, MA, USA).

[7] = molecular target: T1, HPK1; experiment: Western blotting of TCR-induced signaling in human PBMCs after TCR crosslinking; type: cell-based; design: Compound 2 degraded HPK1 in CD4^+ and CD8^+ T cells in a concentration-dependent manner; host or cells: human PBMCs (CD4+ and CD8+ T cells) from healthy donors
Method: as §1, §3

[8] = test system: phosphorylation of SLP76-S376; experiment: TCR-induced p-SLP76-S376 in Jurkat cells after OKT3 stimulation (flow cytometry); type: cell-based; conditions: Homo sapiens; Jurkat cells pretreated 24 h, OKT3 stimulation 30 min
Method: as §1, §2

[9] = test system: HepG2 cells; experiment: Real-time cell mediated cytotoxicity assay (xCELLigence RTCA), PBMC killing of HepG2; type: cell-based; conditions: PBMC:HepG2 5:1, compared to DMSO-pretreated PBMCs, up to 6 days post TCR stimulation
Method: For in vitro HepG2 cell killing, human PBMCs were pretreated in quadruplicates with dimethyl sulfoxide or compounds for 24 h, followed by stimulation by OKT3 for another 24 h. HepG2 cells were seeded at 2 × 10^4/well in a RTCA 96-well-E plate (Agilent Technologies, Sana Clara, CA, USA). 24 h after HepG2 seeding, the stimulated PBMCs were added at a PBMC: HepG2 cells ratio of 5:1. Target cell death was monitored using xCELLigence RTCA MP instrument (Agilent Technologies).

[10] = test system: human PBMCs; experiment: IL-2 and IFN-γ production by human PBMCs co-cultured with HEK293/OS8/PD-L1; type: cell-based; conditions: human PBMCs pretreated 24 h, co-culture with HEK293/OS8/PD-L1 24 h
Method: as §1
Jurkat cells were seeded in triplicates into those plates for stimulation and incubated for 24 h. Alternatively, Jurkat cells were pretreated with various concentrations of the aforementioned compounds for 24 h prior to stimulation with aforementioned immobilized OKT3. For cytokine analysis of human PBMCs, the cells were seeded into U-bottomed 96-well plates (Corning Inc.) and treated with the compounds for 24 h prior to stimulation. […] Interleukin 2 (IL-2) and interferon-gamma (IFN-γ) in the supernatant were detected using the HTRF Human IL-2 Detection Kit and AlphaLISA Biotin-Free Human IFNγ Detection Kit (both obtained from Revvity, Waltham, MA, USA) according to the instructions provided by the manufacturer. […]

[11] = test system: HPK1; design: method as in PMID 32860752, PMID 39446986, PMID 39568237; conditions: preclinical; cited from earlier work
[12] = 300 nM and 1,000 nM pretreatment

T1 sequence (Q92918 whole entry): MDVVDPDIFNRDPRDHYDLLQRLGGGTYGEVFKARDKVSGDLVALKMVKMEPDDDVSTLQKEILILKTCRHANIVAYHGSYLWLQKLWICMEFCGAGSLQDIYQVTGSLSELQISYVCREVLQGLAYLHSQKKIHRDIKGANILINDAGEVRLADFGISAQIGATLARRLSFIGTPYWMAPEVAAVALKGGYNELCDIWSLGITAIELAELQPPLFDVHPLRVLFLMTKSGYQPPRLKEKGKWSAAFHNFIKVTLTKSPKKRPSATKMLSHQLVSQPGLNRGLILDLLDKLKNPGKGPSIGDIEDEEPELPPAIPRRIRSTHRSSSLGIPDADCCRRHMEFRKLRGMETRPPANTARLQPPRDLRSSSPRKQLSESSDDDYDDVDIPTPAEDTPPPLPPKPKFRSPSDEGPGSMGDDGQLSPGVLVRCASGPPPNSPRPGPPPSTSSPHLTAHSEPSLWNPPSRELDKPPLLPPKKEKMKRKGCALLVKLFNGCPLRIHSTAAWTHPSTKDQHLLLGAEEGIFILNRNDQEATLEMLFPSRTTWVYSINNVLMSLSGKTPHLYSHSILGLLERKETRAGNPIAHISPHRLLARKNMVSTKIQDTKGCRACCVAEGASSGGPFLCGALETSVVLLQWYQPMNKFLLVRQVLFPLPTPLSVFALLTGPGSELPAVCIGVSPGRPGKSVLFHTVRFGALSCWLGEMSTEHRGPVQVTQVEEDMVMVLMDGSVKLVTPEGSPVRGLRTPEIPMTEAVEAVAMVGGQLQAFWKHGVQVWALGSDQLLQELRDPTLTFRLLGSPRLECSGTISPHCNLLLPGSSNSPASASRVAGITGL

Cc1cc(-c2cnc3[nH]cc(-c4ccc(C(=O)N(C)C)cc4)c3c2)cc2c1CN(C)CC2 [Compound 1, 4-(5-(2,8-dimethyl-1,2,3,4-tetrahydroisoquinolin-6-yl)-1H-pyrrolo[2,3-b]pyridin-3-yl)-N,N-dimethylbenzamide]
IL-2 production EC50 relative to Compound 2 [1]: higher
IL-2 production, maximal level [1]: comparable with that induced by Compound 2
HPK1 degradation at 1,000 nM [2]: did not significantly degrade HPK1
HPK1 degradation at high concentrations [2]: limited HPK1 degradation
TCR-induced phosphorylation on SLP76-S376 [3]: effectively reduced
Granzyme B levels in CD8+ T cells [4]: enhanced granzyme B levels
HPK1 degradation at high concentrations [5]: resulted in the degradation of HPK1
SLP76-S376 phosphorylation (Western blot) [6]: attenuated SLP76-S376 phosphorylation
ERK1/2 phosphorylation (Western blot) [6]: enhanced ERK1/2 phosphorylation only in HKO-HPK1.WT Jurkat cells
HPK1 levels (Western blot) [7, 12]: without significantly affecting HPK1 levels
SLP76-S376 phosphorylation (Western blot) [7, 12]: reduced or almost completely attenuated SLP76-S376 phosphorylation
IC50 [8]: 120 nM

Cc1cc(-c2cnc3[nH]cc(-c4ccc(C(=O)N(C)C)cc4)c3c2)cc2c1CN(CCC(=O)N1CCN(c3ccc(N4CCC(=O)NC4=O)cc3)CC1)CC2 [Compound 2, 4-(5-(2-(3-(4-(4-(2,4-dioxotetrahydropyrimidin-1(2H)-yl)phenyl)piperazin-1-yl)-3-oxopropyl)-8-methyl-1,2,3,4-tetrahydroisoquinolin-6-yl)-1H-pyrrolo[2,3-b]pyridin-3-yl)-N,N-dimethylbenzamide]
Cytotoxicity of pretreated PBMCs against HepG2 cells [9]: did not exhibited stronger cytotoxicity against HepG2 cells
EC50 ([1]; Homo sapiens): ~200 nM
DC50 ([2]; CD4+ T cells in human PBMCs): 11.5 nM
DC50 ([2]; CD8+ T cells in human PBMCs): 26 nM
IC50 for SLP76-S376 phosphorylation relative to the other two compounds [3]: lower in both populations
TCR-induced phosphorylation on SLP76-S376 [3]: effectively reduced
Granzyme B levels in CD8+ T cells [4]: enhanced granzyme B levels
HPK1 degradation, time course ([5]; 1 μM, within 24 h): effectively degraded HPK1
SLP76-S376 phosphorylation (Western blot) [6]: attenuated SLP76-S376 phosphorylation
ERK1/2 phosphorylation (Western blot) [6]: enhanced ERK1/2 phosphorylation only in HKO-HPK1.WT Jurkat cells
HPK1 levels (Western blot) ([7]; 300 nM pretreatment): almost complete degradation of HPK1
SLP76-S376 phosphorylation (Western blot) ([7]; 300 nM pretreatment): attenuation of SLP76-S376 phosphorylation
IC50 [8]: ~20 nM
Maximal enhancement of TCR-induced IL-2 and IFN-γ production [10]: not stronger than that after treatment with Compound 1

Cc1cc(-c2cnc3[nH]cc(-c4ccc(C(=O)N(C)C)cc4)c3c2)cc2c1CN(CCC(=O)N1CCN(c3ccc(N4CCC(=O)N(C)C4=O)cc3)CC1)CC2 [Compound 3, N,N-dimethyl-4-(5-(8-methyl-2-(3-(4-(4-(3-methyl-2,4-dioxotetrahydropyrimidin-1(2H)-yl)phenyl)piperazin-1-yl)-3-oxopropyl)-1,2,3,4-tetrahydroisoquinolin-6-yl)-1H-pyrrolo[2,3-b]pyridin-3-yl)benzamide]
Cytotoxicity of pretreated PBMCs against HepG2 cells [9]: enhanced HepG2 killing ability of PBMCs, but to a less extent than Compound 1 or Compound 2
IL-2 production EC50 relative to Compound 2 [1]: higher
IL-2 production, maximal level [1]: comparable with that induced by Compound 2
HPK1 degradation at 1,000 nM [2]: did not significantly degrade HPK1
HPK1 degradation at high concentrations [2]: limited HPK1 degradation
TCR-induced phosphorylation on SLP76-S376 [3]: effectively reduced
HPK1 degradation at high concentrations [5]: resulted in the degradation of HPK1
SLP76-S376 phosphorylation (Western blot) [6]: attenuated SLP76-S376 phosphorylation
ERK1/2 phosphorylation (Western blot) [6]: enhanced ERK1/2 phosphorylation only in HKO-HPK1.WT Jurkat cells
HPK1 levels (Western blot) [7, 12]: without significantly affecting HPK1 levels
SLP76-S376 phosphorylation (Western blot) [7, 12]: reduced or almost completely attenuated SLP76-S376 phosphorylation
IC50 [8]: 120 nM

CC(C)(O)C#Cc1cccc(COc2cc(-c3cnc(C4CCN(C(=O)CCOCCOCCOCCOCCOc5cccc6c5C(=O)N(C5CCC(=O)NC5=O)C6=O)CC4)s3)cnc2N)c1 (stereo not drawn) [SS47]
Tumor suppression compared to the corresponding warhead [11]: greater tumor suppression
